A word on the IC50: it is the concentration needed to halve the response being measured.

Activity calls are given as the source filed them.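 How the source made its calls: active means IC50 for lowering Her2 protein in breast cancer cells at or below a set limit; inactive means IC50 above that limit.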

This passage reports IC50 results from PubChem BioAssay AID754 (Emory University Molecular Libraries Screening Center, 2007).

One experiment has as its system SKBr3 Her2 cytoblot, chemiluminescence, 24 h. The experiment is described as follows: reduction of cellular Her2 levels – SKBr3 cells, cytoblot, chemiluminescence, mechanism study for Hsp90 inhibitor project, dose response (AID 754). The note with it: top dose 10 µM.
`Nc1ccc(O)c2ncccc12`: the IC50 was > 10 µM (inactive). As to `CCN(CC)CCCC(C)Nc1cc(O)cc2cccnc12` (stereo not given), the IC50 was > 10 µM (inactive). The same measure, in the same setting: as for `CCN(CC)CCCNc1cc(OC)c(Nc2ccccc2)c2cccnc12`, the figure is > 10 µM (inactive); as for `NCCCCCNc1cc(O)cc2cccnc12`, > 10 µM (inactive).

Take `Nc1cc(O)cc2cccnc12`: the IC50 is < 0.625 µM.

Regarding `Nc1cc2ccccc2c(O)c1O`, the IC50 is > 10 µM (inactive). With `Nc1cc2c(c(O)c1O)C(=O)c1ccccc1C2=O`, the IC50 is > 10 µM (inactive). Regarding `CC(C)NCCCC(C)Nc1cc(O)cc2cccnc12` (stereo not given), the IC50 is > 10 µM (inactive). Turning to `CC(CCN(C)C)Nc1cc(O)cc2cccnc12` (stereo not given), the IC50 is > 10 µM (inactive). In the case of `Nc1cc(N)c2cccnc2c1O`, the IC50 was > 10 µM (inactive). On the same count and under the same terms, as for `CCC(C)NCCNc1cc(OC)cc2cccnc12` (stereo not given), the figure is > 10 µM (inactive).

On to `O=[N+]([O-])c1cc(O)cc2cccnc12`, for which the IC50 is > 10 µM (inactive). `CC(C)NCCCCCNc1cc(O)cc2cccnc12`: the IC50 is > 10 µM (inactive).

The same experiment, now with this note: top dose 30 µM.
Take `CCc1cc(-c2[nH]ncc2-c2ccc3c(c2)OCO3)c(O)cc1O`: the IC50 was > 30 µM (inactive). As for `Cn1ncnc2c(=O)n(C)c(=O)nc1-2`, the IC50 was < 1.88 µM. `CCn1c(CSc2nnc(-c3cccnc3)n2-c2ccccc2C)nc2cc(C(=O)O)ccc21`: the IC50 is 3.14 µM. With `CCn1nc(-c2ccccc2)nc2c(=O)n(C)c(=O)nc1-2`, the IC50 was 2.73 µM. Regarding `N#Cc1c(N2CCCC2)nc(N)c2c(N)nc(N3CCCC3)cc12`, the IC50 was > 30 µM (inactive). With `O=C1c2ccccc2-c2onc3ccc(NCCCn4ccnc4)c1c23`, the IC50 is > 30 µM (inactive). As for `C[C@H]1CCCC(=O)CCCCCc2cc(O)cc(O)c2C(=O)O1`, the IC50 is > 30 µM (inactive).

For the compound `C[C@H]1CCC[C@H](O)CCCCCc2cc(O)cc(O)c2C(=O)O1`, the IC50 was 27.9 µM.

With `Oc1ccc(-c2nc(-c3ccc(O)c(O)c3)cs2)cc1`, the IC50 is > 30 µM (inactive).

`CCn1c(CSc2nnc3ccccn23)nc2cc(C(=O)O)ccc21`: the IC50 is > 30 µM (inactive). As to `CC(Cc1ccc(O)c(O)c1)C(C)Cc1ccc(O)c(O)c1` (stereo not given), the IC50 is > 30 µM (inactive). For `COc1cccc2c1C(=O)c1c(O)c3c(c(O)c1C2=O)C[C@@](O)(C(=O)CO)C[C@@H]3O[C@H]1C[C@H](N)[C@H](O)[C@H](C)O1`, the IC50 is > 30 µM (inactive). With `COc1cccc2c1C(=O)c1c(O)c3c(c(O)c1C2=O)C[C@@](O)(C(C)=O)C[C@@H]3O[C@H]1C[C@H](N)[C@H](O)[C@H](C)O1`, the IC50 is 29.3 µM. On to `Cc1c(-c2nn(C)c(=O)c3ccccc23)oc2ccc(F)cc2c1=O`, for which the IC50 is > 30 µM (inactive). Take `CCn1nc(-c2cccs2)nc2c(=O)n(C)c(=O)nc1-2`: the IC50 was < 1.88 µM.

The experiment is the same for the next values; noted with them: top dose 50 µM.
For the compound `CCN(CC)CC(O)c1ccnc2c(O)cccc12` (stereo not given), the IC50 was > 50 µM (inactive). For `COc1cc(NCC(O)CN(CC(C)C)CC(C)C)c2nc(C)ccc2c1` (stereo not given), the IC50 is > 50 µM (inactive). As for `CCC(CC)NCCCNc1cc(OC)cc2cccnc12`, the IC50 is > 50 µM (inactive). As for `Nc1ccc(O)c2ncccc12`, the IC50 was > 50 µM (inactive). With `N#Cc1cc(S(=O)(=O)Nc2ccc(F)c(-c3c(O)ccc4c3OCO4)c2)ccc1F`, the IC50 is > 50 µM (inactive). Same read-out and setting: as for `COc1cc(NCCCCN)c2ncccc2c1`, the figure is > 50 µM (inactive). For `COc1cc(N)c2ncccc2c1`, the IC50 was > 50 µM (inactive). As for `COc1cc(NS(=O)(=O)c2ccc([N+](=O)[O-])cc2[N+](=O)[O-])c2ncccc2c1`, the IC50 is > 50 µM (inactive). In the case of `COc1cc(NCCN(CC(C)C)CC(C)C)c2ncccc2c1`, the IC50 is > 50 µM (inactive). `O=[N+]([O-])c1cc(S(=O)(=O)Nc2ccc(F)c(-c3c(O)ccc4c3OCO4)c2)ccc1Cl`: the IC50 is > 50 µM (inactive). Consider `Cc1ccc(S(=O)(=O)Nc2ccc(F)c(-c3c(O)ccc4c3OCO4)c2)cc1`, for which the IC50 was > 50 µM (inactive). Turning to `Nc1cccc2cc(O)ccc12`, the IC50 was > 50 µM (inactive). The same measure, in the same setting: as for `CCCC(C)N(CC)CCNc1cc(OC)cc2cccnc12` (stereo not given), the figure is > 50 µM (inactive); as for `COc1cc(NC(C)CCCN)c2ncccc2c1` (stereo not given), > 50 µM (inactive); as for `COc1ccc(Oc2c(OC)cc(NCCCCCNC(C)C)c3ncccc23)cc1`, > 50 µM (inactive). On to `COc1cc(NC(C)CCCNC(C)C)c2ncccc2c1OC` (stereo not given), for which the IC50 is > 50 µM (inactive).

Take `Nc1ccc(Nc2nc3ccccc3s2)c(O)c1`: the IC50 is > 50 µM (inactive). On to `COc1cc(NCCCN(CC(C)C)CC(C)C)c2ncccc2c1Cl`, for which the IC50 is > 50 µM (inactive). In the case of `Cc1[nH]c2c(N)cccc2c1C`, the IC50 was > 50 µM (inactive).

Turning to `CCN(CC)CCCNc1cc(OC)cc2ccc(OC)nc12`, the IC50 is > 50 µM (inactive). As to `COc1cc(NC(C)CCCNC(C)C)c2ncccc2c1` (stereo not given), the IC50 is > 50 µM (inactive).

On to `COc1cc(NCCCC(C)N)c2nccc(Cl)c2c1` (stereo not given), for which the IC50 is > 50 µM (inactive).

The same experiment, now with this note: top dose 60 µM.
With `COc1cc(C2CC(c3ccccc3O)=NN2)ccc1O` (stereo not given), the IC50 was 51 µM (inactive). Still for that read-out and setting: as for `Nc1cccc(S(=O)(=O)Nc2ccc(N)c(-c3ccccc3O)c2)c1`, the figure is > 60 µM (inactive). With `O=[N+]([O-])c1cccc(S(=O)(=O)Nc2ccc(O)c(-c3ccccc3O)c2)c1`, the IC50 was > 60 µM (inactive). For the compound `O=S(=O)(Nc1ccc(O)c(-c2ccccc2O)c1)c1cc(Cl)ccc1Cl`, the IC50 was > 60 µM (inactive). In the case of `CCOc1ccc2ccccc2c1-c1cc(NS(=O)(=O)c2cc(Cl)ccc2Cl)ccc1N`, the IC50 is > 60 µM (inactive). In the case of `CCOc1ccc2ccccc2c1-c1cc(NS(=O)(=O)c2cc(Cl)ccc2Cl)ccc1NC(=O)OC(C)(C)C`, the IC50 was > 60 µM (inactive). `COc1ccc(S(=O)(=O)Nc2ccc(N)c(-c3ccccc3O)c2)cc1OC`: the IC50 was > 60 µM (inactive). The same measure, in the same setting: as for `CCOc1ccc2ccccc2c1-c1cc(NS(=O)(=O)c2ccc(C)cc2)ccc1N`, the figure is > 60 µM (inactive).

As to `Nc1ccc(NS(=O)(=O)c2ccccc2[N+](=O)[O-])cc1-c1ccccc1O`, the IC50 is > 60 µM (inactive). With `Nc1ccc(NS(=O)(=O)c2cc(Cl)ccc2Cl)cc1-c1ccccc1O`, the IC50 is > 60 µM (inactive). Still for that read-out and setting: as for `O=S(=O)(Nc1ccc(Cl)cc1O)c1ccccc1`, the figure is > 60 µM (inactive). In the case of `Cc1ccc(S(=O)(=O)Nc2ccc(O)c(-c3ccccc3O)c2)cc1`, the IC50 was > 60 µM (inactive).

`Nc1ccc(NS(=O)(=O)c2cccc([N+](=O)[O-])c2)cc1-c1ccccc1O`: the IC50 was > 60 µM (inactive). Regarding `COc1ccc(S(=O)(=O)Nc2ccc(O)c(-c3ccccc3O)c2)cc1OC`, the IC50 was > 60 µM (inactive).

Turning to `COc1ccc2c(c1-c1cc(NS(=O)(=O)c3cccc([N+](=O)[O-])c3)ccc1N)OCO2`, the IC50 was > 60 µM (inactive).

`O=[N+]([O-])c1ccc(NS(=O)(=O)c2ccccc2)c(O)c1`: the IC50 was > 60 µM (inactive). For `Nc1ccc(NS(=O)(=O)c2ccccc2)c(O)c1`, the IC50 is > 60 µM (inactive). The same measure, in the same setting: as for `Nc1ccc(NS(=O)(=O)c2ccccc2N)cc1-c1ccccc1O`, the figure is > 60 µM (inactive); as for `CCOc1ccc2ccccc2c1-c1cc(NS(=O)(=O)c2ccc(OC)c(OC)c2)ccc1N`, > 60 µM (inactive); as for `CC(C)(C)OC(=O)Nc1cccc(NS(=O)(=O)c2cc(Cl)ccc2Cl)c1-c1ccccc1O`, 48.2 µM (inactive). With `Cc1ccc(S(=O)(=O)Nc2ccc(N)c(-c3ccccc3O)c2)cc1`, the IC50 was > 60 µM (inactive). Take `COc1ccc(NS(=O)(=O)c2ccccc2)c(OC)c1`: the IC50 was > 60 µM (inactive). In the case of `COc1ccc(C2CC(c3ccccc3O)=NN2)cc1OC` (stereo not given), the IC50 is 52.3 µM (inactive). Same read-out and setting: as for `O=S(=O)(Nc1cc(O)cc2cccnc12)c1ccc(F)cc1`, the figure is > 60 µM (inactive); as for `COc1ccc2c(c1-c1cc(NS(=O)(=O)c3cc(Cl)ccc3Cl)ccc1N)OCO2`, > 60 µM (inactive); as for `COc1ccc2c(c1-c1cc(NS(=O)(=O)c3cccc(N)c3)ccc1N)OCO2`, > 60 µM (inactive).

As to `N#Cc1cc(S(=O)(=O)Nc2cc(O)cc3cccnc23)ccc1F`, the IC50 is 33.8 µM (inactive). For the compound `NCc1cc(S(=O)(=O)Nc2cc(O)cc3cccnc23)ccc1F`, the IC50 was 16.1 µM. As to `Nc1cccc(S(=O)(=O)Nc2ccc(O)c(-c3ccccc3O)c2)c1`, the IC50 was > 60 µM (inactive). `COc1ccc2c(c1-c1cc(NS(=O)(=O)c3ccc(C)cc3)ccc1N)OCO2`: the IC50 is > 60 µM (inactive).
